Results: US20210275514A1, “COMPOUNDS FOR USE IN TREATING KIDNEY DISORDERS” (Hoffmann-La Roche Inc., priority 2018, published 2021)
Entries after “also recorded” stand apart in the source; their conditions may differ.

Test system: ABCA1
Assay: ABCA1 expression by western blot in differentiated podocytes
Assay type: cell-based, human
Conditions: 18 h
Description: Podocytes differentiated for 14 days were starved in RPMI-0.2% FBS for 18 h and then treated with freshly prepared dilutions of compounds in full media for 18 h at 37° C. and 5% CO2. Compound concentrations of 1 μM, 5 μM and 10 μM were evaluated. Cells were then washed with PBS and lysed with 1× cell lysis buffer (Cell Signaling) supplemented with protease and phosphatase inhibitor cocktails (Roche). Total protein content was determined by BCA method (Pierce, Thermoscientific). ABCA1 expression was analyzed by western blot.
Lysates, or cell fractions were incubated with buffer sample at 55° C. for 10 min under reducing conditions. A total of […] of protein in lysates, and one third of the volume collected in cell fraction preps, were separated by SDSPAGE in 4-20% gels (Biorad) and proteins were then transferred to PVDF membranes. Membranes were blocked with 5% milk and blotted with protein-specific antibodies for 18 h at 4° C. The following antibodies were used: mouse anti-ABCA1 (Abcam; 1:1,000), rabbit anti-GAPDH antibody (Millipore; 1:10,000), rabbit anti-MEK and anti-Na^+/K^+ ATPase (Cell Signaling; 1:1,000). After washing with PBS-T, membranes were incubated with anti-mouse and anti-rabbit specific antibodies conjugated to HRP (Promega) 1:10,000 in 5% milk. Membranes were washed and signal was developed using Western bright ECL substrate (Advansta).

Structure (SMILES) | ABCA1 expression (western blot, whole cell lysates) (doses as low as 1 uM, FIG. 4A) | ABCA1 expression (western blot, whole cell lysates) (1 μM, 5 μM and 10 μM evaluated)
O=C(O)c1ccc(-c2nnc([C@](F)([C@H]3Cc4[nH]c5ccc(Cl)cc5c4C3)S(=O)(=O)c3cccc(Br)c3)o2)cc1 (racemic) [Cpd D, 4-{5-[(RS)-(3-Bromo-benzenesulfonyl)-((SR)-7-chloro-1,2,3,4-tetrahydro-cyclopenta[b]indol-2-yl)-fluoro-methyl]-[1,3,4]oxadiazol-2-yl}-benzoic acid] | strong induction; also recorded: markedly increased | –
Cc1nnc([C@](F)([C@H]2Cc3[nH]c4ccc(Cl)cc4c3C2)S(=O)(=O)c2ccccc2)o1 [Cpd E, (R)-2-[(S)-Benzenesulfonyl-fluoro-(5-methyl-[1,3,4]oxadiazol-2-yl)-methyl]-7-chloro-1,2,3,4-tetrahydro-cyclopenta[b]indole] | strong induction; also recorded: markedly increased | –
O=C(Nc1cncnc1)c1ccc(OCC(F)(F)F)c(-c2ccc(Cl)cc2)n1 [Cpd F, 6-(4-chlorophenyl)-N-(pyrimidin-5-yl)-5-(2,2,2-trifluoroethoxy)picolinamide] | – | only Cpd A, and Cpd G, increased ABCA1 expression
